The source of these data is patent US20250230147A1, “LACTAMS AS CBL-B INHIBITORS” (Genentech, Inc., priority 2021, published 2025).

The target in one assay is Cbl-b (Homo sapiens (Human), UniProt Q13191). The assay is described as follows: Cbl-b LCK Ub TR-FRET assay (Cbl-b Lck HTRF). Type of assay: biochemical. The method, boiled down:
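Biotin-Cbl-b preincubated with compound (10-point 3-fold series) 60 min, then His-LCK with 1 mM ATP (2× mixture) added for 90 min at room temperature. Ubiquitination detected by TR-FRET using HA-ubiquitin/UBE2D2 adduct, anti-HA-D2 and streptavidin-Eu; IC50 normalised to no-LCK and DMSO controls.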
On the technique in general: In TR-FRET formats the signal depends on donor and acceptor labels being close together.

The target in another assay is c-Cbl (Homo sapiens (Human), UniProt P22681). The assay is described as follows: C-Cbl LCK Ub TR-FRET assay (c-cbl Lck HTRF). Type of assay: biochemical. To be noted: for (fold-selectivity): C-cbl Lck HTRF IC50 relative to Cbl-b Lck HTRF IC50. The method, boiled down:
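Signal is read once the detection mix has stood 20 min at ambient temperature. Curves are anchored by DMSO as maximum and by omission of LCK as minimum.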

c-Cbl, sequence (P22681 47-435): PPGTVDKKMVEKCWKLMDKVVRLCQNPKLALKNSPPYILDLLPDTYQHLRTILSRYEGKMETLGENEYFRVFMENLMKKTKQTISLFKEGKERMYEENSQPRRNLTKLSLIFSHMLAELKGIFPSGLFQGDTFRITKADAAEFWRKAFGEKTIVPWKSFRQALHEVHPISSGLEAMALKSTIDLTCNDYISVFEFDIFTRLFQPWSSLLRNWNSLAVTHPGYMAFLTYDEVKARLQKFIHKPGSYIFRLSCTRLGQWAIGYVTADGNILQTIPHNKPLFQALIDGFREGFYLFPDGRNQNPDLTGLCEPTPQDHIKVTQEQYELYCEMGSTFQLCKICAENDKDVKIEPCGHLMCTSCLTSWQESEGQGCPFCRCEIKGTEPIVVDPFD
Cbl-b, sequence (Q13191 40-426): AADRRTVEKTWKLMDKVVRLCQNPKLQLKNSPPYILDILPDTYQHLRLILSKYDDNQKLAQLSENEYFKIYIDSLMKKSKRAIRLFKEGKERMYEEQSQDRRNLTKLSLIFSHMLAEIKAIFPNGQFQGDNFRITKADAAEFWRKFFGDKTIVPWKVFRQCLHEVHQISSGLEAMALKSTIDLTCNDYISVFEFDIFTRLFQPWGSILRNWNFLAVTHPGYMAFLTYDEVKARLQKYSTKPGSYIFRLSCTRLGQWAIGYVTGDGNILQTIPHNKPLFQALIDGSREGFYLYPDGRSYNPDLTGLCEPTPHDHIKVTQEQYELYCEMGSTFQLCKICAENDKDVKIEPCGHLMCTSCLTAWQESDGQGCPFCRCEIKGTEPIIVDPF

In the case of `Cn1cnnc1[C@@H](F)C1(c2cccc(N3Cc4c(cc(CN5CC6(CC6)C5)cc4C(F)(F)F)C3=O)c2)COC1` [Compound 79], the IC50 (commonly the concentration that gives 50% inhibition) against Cbl-b was determined as 170 nM. Further, on c-Cbl, the IC50 amounted to 270 nM and the “(fold-selectivity)” value is recorded as 1.6x.

For `Cn1cnnc1[C@H](F)C1(c2cccc(N3Cc4c(cc(CN5CC[C@@H](F)C5)cc4C(F)(F)F)C3=O)c2)COC1` [Compound 80, 2-(3-(3-((R)-fluoro(4-methyl-4H-1,2,4-triazol-3-yl)methyl)oxetan-3-yl)phenyl)-6-(((R)-3-fluoropyrrolidin-1-yl)methyl)-4-(trifluoromethyl)isoindolin-1-one], the IC50 at Cbl-b was 110 nM. For the same molecule, at c-Cbl, half-maximal inhibition (IC50) was put at 290 nM and the “(fold-selectivity)” value worked out at 2.6x.

For the molecule `Cn1cnnc1[C@@H](F)C1(c2cccc(N3Cc4c(cc(CN5CC[C@@H](F)C5)cc4C(F)(F)F)C3=O)c2)COC1` [Compound 81, 2-(3-(3-((S)-fluoro(4-methyl-4H-1,2,4-triazol-3-yl)methyl)oxetan-3-yl)phenyl)-6-(((R)-3-fluoropyrrolidin-1-yl)methyl)-4-(trifluoromethyl)isoindolin-1-one], on Cbl-b, the IC50 was 270 nM. On c-Cbl, half-maximal inhibition (IC50) was put at 750 nM and the “(fold-selectivity)” value is listed as 2.8x.

`Cn1cnnc1[C@H](F)C1(c2cccc(N3Cc4c(cc(CN5CC[C@H](F)C5)cc4C(F)(F)F)C3=O)c2)COC1` [Compound 82, 2-(3-(3-((R)-fluoro(4-methyl-4H-1,2,4-triazol-3-yl)methyl)oxetan-3-yl)phenyl)-6-(((S)-3-fluoropyrrolidin-1-yl)methyl)-4-(trifluoromethyl)isoindolin-1-one] displayed an IC50 on Cbl-b of 28 nM. Besides, on c-Cbl, inhibition was half-maximal at 68 nM (IC50) and the “(fold-selectivity)” value was 2.4x.

`Cn1cnnc1[C@@H](F)C1(c2cccc(N3Cc4c(cc(CN5CC[C@H](F)C5)cc4C(F)(F)F)C3=O)c2)COC1` [Compound 83, 2-(3-(3-((S)-fluoro(4-methyl-4H-1,2,4-triazol-3-yl)methyl)oxetan-3-yl)phenyl)-6-(((S)-3-fluoropyrrolidin-1-yl)methyl)-4-(trifluoromethyl)isoindolin-1-one] showed an IC50 at Cbl-b of 210 nM. Also, on c-Cbl, the midpoint of inhibition, the IC50, lay at 640 nM and the “(fold-selectivity)” value was determined as 3.1x.

Molecule `Cn1cnnc1[C@H](F)C1(c2cccc(N3Cc4c(cc(CN5CC6CC6C5)cc4C(F)(F)F)C3=O)c2)COC1` (stereo partly drawn) [Compound 84, 6-((3-azabicyclo[3.1.0]hexan-3-yl)methyl)-2-(3-(3-((R)-fluoro(4-methyl-4H-1,2,4-triazol-3-yl)methyl)oxetan-3-yl)phenyl)-4-(trifluoromethyl)isoindolin-1-one] yielded an IC50 at Cbl-b of 62 nM. For the same molecule, on c-Cbl, the IC50 was determined as 120 nM and the “(fold-selectivity)” value is 1.9x.

At Cbl-b, `Cn1cnnc1[C@@H](F)C1(c2cccc(N3Cc4c(cc(CN5CC6CC6C5)cc4C(F)(F)F)C3=O)c2)COC1` (stereo partly drawn) [Compound 85, 6-((3-azabicyclo[3.1.0]hexan-3 yl)methyl)-2-(3-(3-((S)-fluoro(4-methyl-4H-1,2,4-triazol-3-yl)methyl)oxetan-3-yl)phenyl)-4-(trifluoromethyl)isoindolin-1-one] registered an IC50 of 180 nM. Further, at c-Cbl, the IC50 was found to be 370 nM and the “(fold-selectivity)” value worked out at 2.0x.

As to `Cn1cnnc1[C@@H](F)C1(c2cccc(N3Cc4c(cc(CN5CC6CC5C6)cc4C(F)(F)F)C3=O)c2)COC1` [Compound 87, (S)-6-((2-azabicyclo[2.1.1]hexan-2-yl)methyl)-2-(3-(3-(fluoro(4-methyl-4H-1,2,4-triazol-3-yl)methyl)oxetan-3-yl)phenyl)-4-(trifluoromethyl)isoindolin-1-one], the IC50 at Cbl-b amounted to 1200 nM; against c-Cbl, 3100 nM. Besides, the “(fold-selectivity)” value on c-Cbl came to 2.6x.

Consider `Cn1cnnc1[C@H](F)C1(c2cccc(N3Cc4c(cc(CN5CCOCC5)cc4C(F)(F)F)C3=O)c2)COC1` [Compound 88, (R)-2-(3-(3-(fluoro(4-methyl-4H-1,2,4-triazol-3-yl)methyl)oxetan-3-yl)phenyl)-6-(morpholinomethyl)-4-(trifluoromethyl)isoindolin-1-one], for which, on Cbl-b, the IC50 was determined as 100 nM. On c-Cbl, the 50% inhibitory concentration (IC50) came to 210 nM and the “(fold-selectivity)” value stood at 2.1x.

With `Cn1cnnc1[C@@H](F)C1(c2cccc(N3Cc4c(cc(CN5CCOCC5)cc4C(F)(F)F)C3=O)c2)COC1` [Compound 89, (S)-2-(3-(3-(fluoro(4-methyl-4H-1,2,4-triazol-3-yl)methyl)oxetan-3-yl)phenyl)-6-(morpholinomethyl)-4-(trifluoromethyl)isoindolin-1-one], on Cbl-b, the IC50 was found to be 310 nM. Besides, at c-Cbl, the IC50 stood at 720 nM and the “(fold-selectivity)” value is listed as 2.3x.

On Cbl-b, `CC(C)[C@H]1CN(Cc2cc3c(c(C(F)(F)F)c2)CN(c2cccc(C4([C@@H](F)c5nncn5C)COC4)c2)C3=O)CCN1` [Compound 90, 2-(3-(3((R)-fluoro(4-methyl-4H-1,2,4-triazol-3-yl)methyl)oxetan-3-yl)phenyl)-6-(((S)-3-isopropylpiperazin-1-yl)methyl)-4-(trifluoromethyl)isoindolin-1-one] had an IC50 of 42 nM. On c-Cbl, the IC50 turned out to be 58 nM and the “(fold-selectivity)” value is 1.4x.

At Cbl-b, `CC(C)[C@H]1CN(Cc2cc3c(c(C(F)(F)F)c2)CN(c2cccc(C4([C@H](F)c5nncn5C)COC4)c2)C3=O)CCN1` [Compound 91] registered an IC50 of 140 nM. For the same molecule, at c-Cbl, the midpoint of inhibition, the IC50, lay at 170 nM and the “(fold-selectivity)” value came out at 1.2x.

Regarding `CC(C)[C@@H]1CN(Cc2cc3c(c(C(F)(F)F)c2)CN(c2cccc(C4([C@@H](F)c5nncn5C)COC4)c2)C3=O)CCN1` [Compound 92], the IC50 against Cbl-b worked out at 20 nM. Further, at c-Cbl, the IC50 is 24 nM and the “(fold-selectivity)” value turned out to be 1.2x.

For the molecule `CC(C)[C@@H]1CN(Cc2cc3c(c(C(F)(F)F)c2)CN(c2cccc(C4([C@H](F)c5nncn5C)COC4)c2)C3=O)CCN1` [Compound 93, 2-(3-(3-((S)-fluoro(4-methyl-4H-1,2,4-triazol-3-yl)methyl)oxetan-3-yl)phenyl)-6-(((R)-3-isopropylpiperazin-1-yl)methyl)-4-(trifluoromethyl)isoindolin-1-one], the IC50 at Cbl-b was 68 nM; against c-Cbl it was 78 nM. Also, the “(fold-selectivity)” value on c-Cbl came to 1.1x.

For the molecule `CC(C)[C@@H]1CNCCN1Cc1cc2c(c(C(F)(F)F)c1)CN(c1cccc(C3([C@@H](F)c4nncn4C)COC3)c1)C2=O` [Compound 94, 2-(3-(3((R)-fluoro(4-methyl-4H-1,2,4-triazol-3-yl)methyl)oxetan-3-yl)phenyl)-6-(((R)-2-isopropylpiperazin-1-yl)methyl)-4-(trifluoromethyl)isoindolin-1-one], at Cbl-b, the IC50 is 180 nM. Also, at c-Cbl, the IC50 stood at 200 nM and the “(fold-selectivity)” value came out at 1.1x.

`CC(C)[C@@H]1CNCCN1Cc1cc2c(c(C(F)(F)F)c1)CN(c1cccc(C3([C@H](F)c4nncn4C)COC3)c1)C2=O` [Compound 95, 2-(3-(3-((S)-fluoro(4-methyl-4H-1,2,4-triazol-3-yl)methyl)oxetan-3-yl)phenyl)-6-(((R)-2-isopropylpiperazin-1-yl)methyl)-4-(trifluoromethyl)isoindolin-1-one]: half-maximal inhibition against Cbl-b (IC50) was put at 270 nM. In addition, at c-Cbl, half-maximal inhibition (IC50) required 410 nM and the “(fold-selectivity)” value is on record as 1.5x.
